In series [1] the target is T1, recombinant human mGluR4a receptors (Homo sapiens, UniProt Q14833).
T1 construct: expressed in transfected cells
Nature of the series: mGluR4 assay on HEK-expressing human mGluR4 (fluorescent cell based Ca2+ mobilization assay, FLIPR). The settings on record: HEK-293 cells expressing hmGluR4; enhancement of EC25 glutamate response; mean of at least three independent experiments in duplicate; read-out: Ca^2+ Flux (mean EC50). An excerpt:
mGluR4 Assay on HEK-Expressing Human mGluR4 The compounds of the present invention are positive allosteric modulators of mGluR4 receptor. Their activity was examined on recombinant human mGluR4a receptors by detecting changes in intracellular Ca^2+ concentration, using the fluorescent Ca^2+-sensitive dye Fluo-4-(AM) and a Fluorometric Imaging Plate Reader (FLIPR, Molecular Devices, Sunnyvale, Calif.) The cDNA encoding the human metabotropic glutamate receptor (hmGluR4), (accession number NM_000841.1, NCBI Nucleotide database browser), was subcloned into an expression vector containing also the hygromycin resistance gene. In parallel, the cDNA encoding a G protein allowing redirection of the activation signal to intracellular calcium flux was subcloned into a different expression vector containing also the puromycin resistance gene. Transfection of both these vectors into HEK293 cells with PolyFect reagent (Qiagen) according to supplier's protocol, and hygromycin and puromycin treatment allowed selection of antibiotic resistant cells which had integrated stably one or more copies of the plasmids. Positive cellular clones expressing hmGluR4 were identified in a functional assay measuring changes in calcium fluxes in response to glutamate or selective known mGluR4 orthosteric agonists and antagonists. HEK-293 cells expressing hmGluR4 were maintained in media containing DMEM, dialyzed Fetal Calf Serum (10%), Glutamax™ (2 mM), Penicillin (100 units/mL), Streptomycin (100 μg/mL), Geneticin (100 μg/mL) and Hygromycin-B (40 μg/mL) and puromycin (1 μg/mL) at 37° C./5% CO2. Human mGluR4 HEK-293 cells were plated out 24 hours prior to FLIPR^384 assay in black-walled, clear-bottomed, poly-L-ornithine-coated 384-well plates at a density of 25,000 cells/well in a glutamine/glutamate free DMEM medium containing foetal bovine serum (10%), penicillin (100 units/mL) and streptomycin (100 μg/mL) at 37 C/5% CO2. On the day of the assay, the medium was aspirated and the cells were loaded with a 3 μM solution of Fluo-4-AM (LuBioScience, Lucerne, Switzerland) in 0.03% pluronic acid. After 1 hour at 37 C/5% CO2, the non incorporated dye was removed by washing cell plate with the assay buffer and the cells were left in the dark at room temperature for six hours before testing. All assays were performed in a pH 7.4 buffered-solution containing 20 mM HEPES, 143 mM NaCl, 6 mM KCl, 1 mM MgSO4, 1 mM CaCl2, 0.125 mM sulfapyrazone, 0.1% glucose. After 10 s of basal fluorescence recording, various concentrations of the compounds of the invention were added to the cells. Changes in fluorescence levels were first monitored for 180 s in order to detect any agonist activity of the compounds. Then the cells were stimulated by an EC25 glutamate concentration for an additional 110 s in order to measure enhancing activities of the compounds of the invention. EC25 glutamate concentration is the concentration giving 25% of the maximal glutamate response. The concentration-response curves of representative compounds of the present invention were generated using the Prism GraphPad software (Graph Pad Inc, San Diego, USA). The curves were fitted to a four-parameter logistic equation: (Y=Bottom+(Top−Bottom)/(1+10^((Log EC50−X)*Hill Slope) allowing the determination of EC50 values. The Table 5 below represents the mean EC50 obtained from at least three independent experiments of selected molecules performed in duplicate.

In general, EC50 refers to the concentration needed to bring the measured effect to its halfway point. As usually defined, the melting point is the temperature, or range, at which the solid turns liquid.

Molecules are shown by their SMILES. Bounds are passed on as bounds.

T1 sequence (Q14833 33-912): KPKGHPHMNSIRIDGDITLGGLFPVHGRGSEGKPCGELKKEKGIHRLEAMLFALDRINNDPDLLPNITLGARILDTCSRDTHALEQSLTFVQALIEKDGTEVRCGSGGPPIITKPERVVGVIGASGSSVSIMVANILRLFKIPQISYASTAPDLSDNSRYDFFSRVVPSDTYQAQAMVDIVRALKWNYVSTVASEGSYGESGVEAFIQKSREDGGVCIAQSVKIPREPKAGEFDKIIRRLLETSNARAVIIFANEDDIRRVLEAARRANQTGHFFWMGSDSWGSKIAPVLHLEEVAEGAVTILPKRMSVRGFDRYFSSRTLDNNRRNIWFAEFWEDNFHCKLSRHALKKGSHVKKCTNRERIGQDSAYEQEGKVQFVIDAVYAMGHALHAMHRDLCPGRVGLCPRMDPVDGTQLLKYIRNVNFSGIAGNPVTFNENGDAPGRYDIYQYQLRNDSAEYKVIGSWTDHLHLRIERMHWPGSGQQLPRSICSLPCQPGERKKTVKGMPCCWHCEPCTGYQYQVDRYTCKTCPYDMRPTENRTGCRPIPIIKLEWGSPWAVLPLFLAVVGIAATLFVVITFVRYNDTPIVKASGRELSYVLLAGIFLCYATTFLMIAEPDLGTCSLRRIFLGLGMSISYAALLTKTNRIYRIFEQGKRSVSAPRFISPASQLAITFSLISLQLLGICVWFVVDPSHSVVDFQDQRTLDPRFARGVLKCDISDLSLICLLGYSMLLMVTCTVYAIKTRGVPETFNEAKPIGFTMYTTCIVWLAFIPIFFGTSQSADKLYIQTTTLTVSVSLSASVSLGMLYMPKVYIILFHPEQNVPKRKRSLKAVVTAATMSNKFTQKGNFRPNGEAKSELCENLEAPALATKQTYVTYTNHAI

Turning to `Cc1sc(Nc2cccc(Cl)n2)nc1-c1cn[nH]c1` [Compound 1-31, N-(6-Chloropyridin-2-yl)-5-methyl-4-(1H-pyrazol-4-yl)thiazol-2-amine], the melting point was 290 °C (dec.). Besides, the EC50 in series [1] was under 0.5 µM.
On to `Cc1sc(Nc2cccc(F)n2)nc1-c1cn[nH]c1` [Compound 1-33, N-(6-Fluoropyridin-2-yl)-5-methyl-4-(1H-pyrazol-4-yl)thiazol-2-amine], for which the melting point was 290 °C (dec.). Besides, the EC50 in series [1] is under 0.5 µM.
For `Clc1sc(Nc2ccccn2)nc1-c1cn[nH]c1` [Compound 1-32, 5-Chloro-4-(1H-pyrazol-4-yl)-N-(pyridin-2-yl)thiazol-2-amine], in that order: 282 to 285 °C and under 0.5 µM.
As to `Cc1n[nH]cc1-c1nsc(Nc2ccccc2)n1` [Compound 1-1, 3-(3-methyl-1H-pyrazol-4-yl)-N-phenyl-1,2,4-thiadiazol-5-amine], the half-maximal effective concentration (EC50) in series [1] lay within 1 to 10 µM.
In turn, `Cc1n[nH]cc1-c1nsc(Nc2cccc(F)n2)n1` [Compound 1-43, N-(6-Fluoropyridin-2-yl)-3-(3-methyl-1H-pyrazol-4-yl)-1,2,4-thiadiazol-5-amine] gave a melting point of over 300 °C. In series [1], the EC50 was under 0.5 µM.
For `Cc1sc(Nc2ncccc2F)nc1-c1cn[nH]c1` [Compound 1-46, N-(3-Fluoropyridin-2-yl)-5-methyl-4-(1H-pyrazol-4-yl)thiazol-2-amine], in that order: 300 °C (dec.) and under 0.5 µM.
The like results for `FC(F)(F)c1n[nH]cc1-c1nsc(Nc2ccccn2)n1` [Compound 1-10, N-(Pyridin-2-yl)-3-(3-(trifluoromethyl)-1H-pyrazol-4-yl)-1,2,4-thiadiazol-5-amine] were, in that order, over 260 °C and 0.5 to 1 µM.
For `Fc1cccc(Nc2nc(-c3cn[nH]c3)cs2)n1` [Compound 1-51, N-(6-Fluoropyridin-2-yl)-4-(1H-pyrazol-4-yl)thiazol-2-amine], in that order: 281 to 285 °C and under 0.5 µM.
`c1ccc(Nc2nc(-c3cn[nH]c3)cs2)nc1` [Compound 1-25, N-(4-(1H-pyrazol-4-yl)thiazol-2-yl)pyridin-2-amine]: the melting point was in the range of 261 to 262 °C. Also, in series [1], the concentration giving a half-maximal response (EC50) was under 0.5 µM.
On to `CC(=O)n1cc(-c2nsc(Nc3ccccc3)n2)c(C)n1` [Compound 1-2, 1-(3-Methyl-4-(5-(phenylamino)-1,2,4-thiadiazol-3-yl)-1H-pyrazol-1-yl)ethanone], for which the melting point was in the range of 204 to 208 °C. For the same compound, in series [1], the EC50 lay in the range of 1 to 10 µM.
`CCCc1n[nH]cc1-c1nsc(Nc2ccccc2)n1` [Compound 1-8, N-Phenyl-3-(3-propyl-1H-pyrazol-4-yl)-1,2,4-thiadiazol-5-amine] had a melting point of 170 to 172 °C. Further, the EC50 in series [1] lay within 1 to 10 µM.
The like results for `Cc1cccc(Nc2nc(-c3cn[nH]c3)c(C)s2)n1` [Compound 1-18, 5-Methyl-N-(6-methylpyridin-2-yl)-4-(1H-pyrazol-4-yl)thiazol-2-amine] were, in that order, 306 °C and under 0.5 µM.
For `Cc1sc(Nc2ccccn2)nc1-c1cnn(C(N)=O)c1` [Compound 1-27, 4-(5-Methyl-2-(pyridin-2-ylamino)thiazol-4-yl)-1H-pyrazole-1-carboxamide], in that order: 294 to 296 °C and under 0.5 µM.
The like results for `c1ccc(Nc2nc(-c3cn[nH]c3)ns2)cc1` [Compound 1-6, N-Phenyl-3-(1H-pyrazol-4-yl)-1,2,4-thiadiazol-5-amine] were, in that order, 192 °C and 1 to 10 µM.
The compound `CCc1n[nH]cc1-c1csc(Nc2ccccn2)n1` [Compound 1-61, 4-(3-Ethyl-1H-pyrazol-4-yl)-N-(pyridin-2-yl)thiazol-2-amine] displayed a melting point of 196 to 198 °C. Moreover, in series [1], the concentration giving a half-maximal response (EC50) is under 0.5 µM.
Take `Fc1sc(Nc2ccccn2)nc1-c1cn[nH]c1` [Compound 1-56, 5-Fluoro-4-(1H-pyrazol-4-yl)-N-(pyridin-2-yl)thiazol-2-amine]: the EC50 in series [1] is under 0.5 µM.
As to `c1ccc(Nc2nc(-c3c[nH]nc3C3CC3)cs2)nc1` [Compound 1-60, 4-(3-Cyclopropyl-1H-pyrazol-4-yl)-N-(pyridin-2-yl)thiazol-2-amine], the melting point is 211 to 213 °C. Moreover, the EC50 in series [1] was under 0.5 µM.
For `CC(C)c1n[nH]cc1-c1csc(Nc2ccccn2)n1` [Compound 1-13, 4-(3-Isopropyl-1H-pyrazol-4-yl)-N-(pyridin-2-yl)thiazol-2-amine], in that order: 195 °C and 1 to 10 µM.
Turning to `Cc1n[nH]cc1-c1nsc(Nc2ccccc2F)n1` [Compound 1-4, N-(2-Fluorophenyl)-3-(3-methyl-1H-pyrazol-4-yl)-1,2,4-thiadiazol-5-amine], the EC50 in series [1] fell in the range of 0.5 to 1 µM.
With `Cc1n[nH]cc1-c1nsc(Nc2ccccc2Cl)n1` [Compound 1-3, N-(2-Chlorophenyl)-3-(3-methyl-1H-pyrazol-4-yl)-1,2,4-thiadiazol-5-amine], the melting point lay within 180 to 182 °C. The EC50 in series [1] was in the range of 1 to 10 µM.
In the case of `Cc1n[nH]cc1-c1csc(Nc2ccccn2)n1` [Compound 1-11, 4-(3-Methyl-1H-pyrazol-4-yl)-N-(pyridin-2-yl)thiazol-2-amine], the melting point is 255 to 257 °C. Besides, the EC50 in series [1] is under 0.5 µM.
The like results for `Cc1sc(Nc2ccccn2)nc1-c1cn[nH]c1` [Compound 1-16, 5-Methyl-4-(1H-pyrazol-4-yl)-N-(pyridin-2-yl)thiazol-2-amine] were, in that order, 291 to 294 °C and under 0.5 µM.
The like results for `FC(F)(F)c1n[nH]cc1-c1csc(Nc2ccccn2)n1` [Compound 1-12, N-(Pyridin-2-yl)-4-(3-(trifluoromethyl)-1H-pyrazol-4-yl)thiazol-2-amine] were, in that order, 250 °C and 0.5 to 1 µM.
For `FC(F)(F)c1sc(Nc2ccccn2)nc1-c1cn[nH]c1` [Compound 1-54, 4-(1H-Pyrazol-4-yl)-N-(pyridin-2-yl)-5-(trifluoromethyl)thiazol-2-amine], in that order: 250 °C (dec.) and 0.5 to 1 µM.
`N#Cc1sc(Nc2ccccn2)nc1-c1cn[nH]c1` [Compound 1-47, 4-(1H-Pyrazol-4-yl)-2-(pyridin-2-ylamino)thiazol-5-carbonitrile]: the melting point was 250 °C (dec.). In series [1], the EC50 was under 0.5 µM.
The like results for `Cc1n[nH]cc1-c1nsc(Nc2ccccn2)n1` [Compound 1-5, 3-(3-Methyl-1H-pyrazol-4-yl)-N-(pyridin-2-yl)-1,2,4-thiadiazol-5-amine] were, in that order, over 280 °C and 1 to 10 µM.
The like results for `Cc1cccc(Nc2nc(-c3cn[nH]c3)cs2)n1` [Compound 1-53, N-(6-Methylpyridin-2-yl)-4-(1H-pyrazol-4-yl)thiazol-2-amine] were, in that order, 259 to 260 °C and under 0.5 µM.
The like results for `Clc1cccc(Nc2nc(-c3cn[nH]c3)cs2)n1` [Compound 1-49, N-(6-Chloropyridin-2-yl)-4-(1H-pyrazol-4-yl)thiazol-2-amine] were, in that order, 295 °C (dec.) and under 0.5 µM.
For the compound `Cc1n[nH]cc1-c1csc(Nc2ccccc2)n1` [Compound 1-7, 4-(3-Methyl-1H-pyrazol-4-yl)-N-phenylthiazol-2-amine], the melting point lay within 200 to 202 °C. Besides, in series [1], the concentration for a half-maximal effect (EC50) fell in the range of 1 to 10 µM.
For `CCCc1n[nH]cc1-c1nsc(Nc2ccccn2)n1` [Compound 1-9, 3-(3-Propyl-1H-pyrazol-4-yl)-N-(pyridin-2-yl)-1,2,4-thiadiazol-5-amine], in that order: 248 to 250 °C and 1 to 10 µM.

Source of the values: US8524718B2, “Heteroaromatic derivatives and their use as positive allosteric modulators of metabotropic glutamate receptors” (Addex Pharma S.A., priority 2007, dated 2013).
